The values that follow come from US11767316B2, “Non-fused thiophene derivatives and their uses” (ENYO PHARMA, priority 2018, dated 2023).

The test system of experiment [1] is H1N1 (influenza A/New Caledonia/20/99). Description: Antiviral effect on A549 cells infected with H1N1 (MUNANA neuraminidase readout). It is filed as cell-based. The conditions noted are these: H1N1 A/New Caledonia/20/99 at MOI 0.1, 48 h post-infection, MUNANA fluorescence, read-out: IC50. The method, then: The antiviral effect of the compounds of the invention have been tested on A549 cell lines infected with H1N1 (influenza A/New Caledonia/20/99).
Human A549 cells (80,000 cells/well in a 96 well plate) were treated with a range of concentration of test compounds and immediately infected by H1N1 A/New Caledonia/20/99 virus (clinical isolate) at MOI of 0.1 in DMEM/1% Penicillin/streptomycin supplemented with 0.25 μg/ml TPCK trypsin (Sigma) and incubated at 37° C. in 5% CO2. 48 h post-infection, supernatants (25 μl) were collected and transferred into a 96-well black flat-bottom plate, mixed with 25 μl PBS with Ca++/Mg++(Thermo Fisher) and 50 μl of 2′-(4-Methylumbelliferyl)-α-D-N-acetylneuraminic acid sodium salt hydrate stock-solution (20 μM, MUNANA, Sigma). Plates were incubated 1 h at 37° C. and reaction is stopped by adding 100 μl of Stop Solution (glycine 0.1 M pH10.7/25% ethanol). The amount of fluorescent product released by MUNANA hydrolysis (4-MU) was measured in a Tecan spectrophotometer with excitation and emission wavelengths of 365 and 450 nm respectively.

The test system of a further experiment is NFκB. Description: NFκB reporter assay (NanoLuciferase) in A549 cells, TNFα stimulation. The format is cell-based. To be noted: Homo sapiens, 4 ng/ml TNFα, 6 hours. An excerpt: Compounds of the present invention have been tested for their capacity to inhibit NFκB.
The NFκB reporter construct was made by cloning 5 NFκB responsive elements upstream of a NanoLuciferase reporter gene flanked by AAVS1 genomic sequences.
NFκB Responsive element fused with NanoLuciferase and SV40 late Poly(A) signal was amplified from pNL3.2-NFκB-Nluc (Promega) using NFKB-NLUC-F and NFKB-NLUC-R primers and inserted by Infusion (TaKaRa) in AAVS1 SA-2A-puro-pA donor plasmid (Hockemeyer et al, Nat Biotechnol. 2009, 27, 851-7) digested by Sal1. pCRISPR AAVS1-T2 expressing a guide RNA (gRNA) to target human AAVS1 (T2 target sequence) was constructed by inserting AAVS1-T2A hybridized primers in pLentiCRISPR v2-blast (Sanjana et al, Nat Methods. 2014, 11, 783-4) digested by Bsmb1.
A549 cells were transfected by the plasmids and puromycine selected for 5 days (1 μg mL-1). Then clones were obtained by limiting dilution and selected to maximize TNFα dependent NFkB-NanoLuciferase induction.
The reporter cells were seeded on a 96-well plate for overnight with DMEM including 10% FBS. Test compounds were added at varying concentrations. The cells then were treated with 4 ng/ml TNFα (Peprotech, ref E251) in DMEM+10% FBS. NanoGlo luciferase assay (Promega) was carried out 6 hours later. Luminescence was measured using a Spark 20M spectrofluorimeter (Tecan). Values were normalized to the luminescence measured in untreated cells.
For orientation: In a reporter assay the amount or activity of a reporter protein is the signal.

[2] abbreviates: Influenza A virus, H1N1, A549, 48 h.

Where two headings read alike, the source gives them in different places.

With `O=C(Nc1scc(C2CCc3ccccc3C2)c1C(=O)O)c1ccc(OC(F)F)cc1` (stereo not shown) [#152], in experiment [1], the IC50 (as a rule, the concentration that gives 50% inhibition) is 2 nM. In addition, the midpoint of the response in the experiment with NFκB, the EC50, lay at 160 nM.
As for `CC(C)Oc1ccc(C(=O)Nc2scc(C3CCc4ccccc4C3)c2C(=O)O)cc1` (stereo not shown) [#180], the IC50 in experiment [1] (setting [2]) is 0.3 nM. Also, a half-maximal effect with NFκB (EC50) was put at 50 nM.
As to `O=C(Nc1scc(C2CCCc3ccccc32)c1C(=O)O)c1ccccc1` (stereo not shown) [#124], the IC50 in experiment [1] (setting [2]) stood at 237 nM. In addition, in the experiment on NFκB, the response was half-maximal at 910 nM (EC50).
Regarding `O=C(Nc1scc(C2CCc3ccccc3C2)c1C(=O)O)c1ccc(F)cc1` (stereo not shown) [#151], the IC50 in experiment [1] is 2 nM. Also, it took 90 nM to reach a half-maximal effect in the experiment on NFκB (EC50).
On to `O=C(Nc1scc(C2CCc3ccccc32)c1C(=O)O)c1ccccc1` (stereo not shown) [#19], for which the IC50 in experiment [1] (setting [2]) came out at 67 nM. In addition, a half-maximal effect in the experiment with NFκB (EC50) was put at 200 nM.
On to `O=C(Nc1sc(Cl)c(C2CCc3ccccc3C2)c1C(=O)O)c1ccccc1` (stereo not shown) [#17], for which the IC50 in experiment [1] (setting [2]) came out at 38.3 nM. For the same compound, in the experiment on NFκB, the EC50 (commonly the concentration needed to bring the measured effect to its halfway point) was found to be 180 nM.
On to `COCCNc1cccc(C(=O)Nc2scc(C3CCc4ccccc4C3)c2C(=O)O)c1` (stereo not shown) [#94], for which the IC50 in experiment [1] (setting [2]) was determined as 2 nM. In the experiment on NFκB, this compound gave an EC50 of 90 nM.
For the compound `COc1ccc(C(=O)Nc2scc(C3CCc4ccccc4C3)c2C(=O)O)cc1F` (stereo not shown) [#162], the IC50 in experiment [1] (setting [2]) is 4 nM. In the experiment on NFκB, this compound returned an EC50 of 200 nM.
`CN1CCOc2cc(C(=O)Nc3scc(C4CCc5ccccc5C4)c3C(=O)O)ccc21` (stereo not shown) [#86]: in experiment [1] (setting [2]), the 50% inhibitory concentration (IC50) amounted to 2 nM. Moreover, the EC50 in the experiment with NFκB worked out at 40 nM.
Consider `COCCCNc1ccc(C(=O)Nc2scc(C3CCc4ccccc43)c2C(=O)O)cc1` (stereo not shown) [#57], for which the IC50 in experiment [1] (setting [2]) was 76 nM. The EC50 in the experiment on NFκB came out at 80 nM.
Take `C[C@@H]1COC[C@H](C)N1c1ccc(C(=O)Nc2scc(C3CCc4ccccc4C3)c2C(=O)O)cc1` (stereo partly shown) [#149]: in experiment [1] (setting [2]), the IC50 worked out at 29 nM.
As to `O=C(Nc1scc(C2CCc3ccccc3C2)c1C(=O)O)c1ccccc1F` (stereo not shown) [#163], the IC50 in experiment [1] (setting [2]) turned out to be 43 nM.
Consider `COCCNc1ccc(C(=O)Nc2scc(C3CCc4ccccc4C3)c2C(=O)O)cc1` (stereo not shown) [#65], for which the IC50 in experiment [1] (setting [2]) was determined as 4 nM.
On to `O=C(Nc1scc(C2CCc3ccccc3C2)c1C(=O)O)c1ccc2c(c1)CCCO2` (stereo not shown) [#181], for which the IC50 in experiment [1] (setting [2]) was 2 nM.
Turning to `O=C(Nc1scc(C2CCc3ccccc3C2)c1C(=O)O)c1ccc(NC2CCOCC2)cc1` (stereo not shown) [#52], the IC50 in experiment [1] (setting [2]) came out at 0.4 nM.
Turning to `O=C(Nc1scc(C2CCc3ccccc3C2)c1C(=O)O)c1ccc(N2C[C@@H]3C[C@H]2CO3)cc1` (stereo partly shown) [#140], the IC50 in experiment [1] (setting [2]) is 3.5 nM. The same compound returned an EC50 in the experiment with NFκB of 40 nM.
Take `O=C(Nc1scc(C2CCc3ccccc3C2)c1C(=O)O)c1ccc(N2CCCC2=O)cc1` (stereo not shown) [#168]: the IC50 in experiment [1] (setting [2]) worked out at 11 nM.
Regarding `C[C@H]1CN(c2ccc(C(=O)Nc3scc(C4CCc5ccccc5C4)c3C(=O)O)cc2)CCO1` (stereo partly shown) [#143], the IC50 in experiment [1] (setting [2]) turned out to be 4 nM.
Regarding `O=C(Nc1scc(C2CCc3ccccc3C2)c1C(=O)O)c1ccc(NCC2(O)CCOCC2)cc1` (stereo not shown) [#136], in experiment [1] (setting [2]), the IC50 was 30 nM.
As to `COc1cc(C(=O)Nc2scc(C3CCc4ccccc4C3)c2C(=O)O)cc(OC)c1NCC1CCOCC1` (stereo not shown) [#137], the IC50 in experiment [1] (setting [2]) amounted to 4.2 nM.
`C[C@@H]1CN(c2ccc(C(=O)Nc3scc(C4CCc5ccccc5C4)c3C(=O)O)cc2)C[C@H](C)O1` (stereo partly shown) [#148]: in experiment [1] (setting [2]), the IC50 was determined as 24 nM.
Consider `O=C(Nc1scc(C2CCc3ccccc3C2)c1C(=O)O)c1cccc(Cl)c1` (stereo not shown) [#167], for which, in experiment [1] (setting [2]), the IC50 was 75 nM.
Turning to `O=C(Nc1scc(-c2ccc3c(c2)CCCC3)c1C(=O)O)c1ccc(F)cc1` [#125], the IC50 in experiment [1] (setting [2]) stood at 237 nM.
